# Paper PMC8944596, “Determination of the Relationships between the Chemical Structure and Antimicrobial Activity of a GAPDH-Related Fish Antimicrobial Peptide and Analogs Thereof” (Antibiotics, 2022)
# Ends that are not written are not given here.
# Legend:
# [1] = system: E. coli ATCC 25922; parameters: method as in PMID 1605597; conditions: cited from earlier work
# [2] = system: P. aeruginosa ATCC 27853; parameters: method as in PMID 1605597; conditions: cited from earlier work
# [3] = system: Z. rouxii LL12_088; test: Antifungal microdilution MIC/MFC; assay type: cell-based, Zygosaccharomyces rouxii; conditions: 99.9% inhibition of yeast growth by CFU counts on PDA
# Description: Mucor racemosus LMA-722, Paecilomyces sp. 5332-9a, and Aspergillus niger 3071-13 were used as filamentous fungal strains. Saccharomyces boulardii 27169, Rhodotorula mucilaginosa 27173, and Zygosaccharomyces rouxii LL12_088 were used as yeast strains. Fungal strains were sub-cultured on potato dextrose agar (PDA) (BD, Sparks, USA) plates, at 25 °C, at least two times, before being used for antimicrobial and membrane permeabilization testing.
# MICs were also tested using microdilutions in 96-well plates for fungal strains. The protocol used was roughly the same as that described for bacterial strains. RPMI 1640 (Sigma-Aldrich, St. Louis, MO, USA), buffered with MOPS (Fisher Scientific, Fair Lawn, NJ, USA) (0.164 M, pH = 7), was used instead of MHB, according to CLSI guidelines. Potato dextrose broth was used for microplates inoculated with Z. rouxii yeast. For filamentous fungi, conidia were harvested from 7-day cultures and diluted in buffered RPMI 1640 to obtain a suspension containing 5 × 10^4 CFU/mL, as assessed with a COUNTESS II FL automatic cell counter (Thermo Fisher Scientific, Waltham, MA, USA). […] Plates were then incubated for 24 (yeasts) or 48 (filamentous fungi) h at 25 °C. […] Natamycin (Sigma-Aldrich, St. Louis, MO, USA) was used as positive control for all fungal strains. […]
# [4] = system: E. coli ATCC 25922; test: Broth microdilution MIC/MBC; assay type: cell-based; conditions: Escherichia coli, ATCC25922, MHB, 5 × 10^5 CFU/mL, 16 h at 37 °C, no visible growth, three independent repetitions, two technical replicates
# Description: Escherichia coli ATCC 25922, Escherichia coli ATCC 11229, Pseudomonas aeruginosa ATCC 27853, Aeromonas salmonicida subsp. salmonicida 69 R3, Aeromonas salmonicida subsp. salmonicida 69 R5 [53], Micrococcus luteus LMA-272, and Listeria ivanovii ATCC 19119 were used for antibacterial activity testing. Details on these strains used in this study are included in Table 6. All these strains were cultivated in tryptic soy broth (TSB) (BD, Sparks, NV, USA), except for L. ivanovii, which was grown in brain heart infusion (BHI) broth (BD, Sparks, USA). All bacterial strains were grown at 37 °C, except for the two A. salmonicida strains, which were incubated at 20 °C. Strains were sub-cultured at least twice, before being used for antimicrobial and membrane permeabilization assays.
# MICs for bacterial strains were determined using a broth microdilution protocol. Two-fold dilutions of peptide solutions ([…]) were made in Mueller Hinton Broth (MHB) (Oxoid, Basingstoke, UK) in 96-well polypropylene clear round bottom microplates (Corning Inc., Corning, NY, USA). […] Final volumes in the wells were of 200 μL. […] After reading of the MICs, 20 μL of the wells that were showing no visible bacterial growth were inoculated on tryptic soy agar (TSA) (or BHI agar for Listeria ivanovii) plates, which were then incubated at the appropriate temperature for 24 h. […]
compound,measurement,setting,value
magainin-2,"MIC, E. coli ATCC 25922",[1],50 µg/mL
same,"MIC, P. aeruginosa ATCC 27853",[2],50 µg/mL
HGKKVEIVAIND [Analog 4],"MFC, Z. rouxii LL12_088",[3],n.f.a. (No fungicidal activity)
O=C(N[C@H](CO)[C@H](O)c1ccc([N+](=O)[O-])cc1)C(Cl)Cl [Chloramphenicol],MIC,[4],4 µg/mL
